Experimental data: ChEMBL document CHEMBL4321872, “Engineering a Potent, Long-Acting, and Periphery-Restricted Oxytocin Receptor Agonist with Anorexigenic and Body Weight Reducing Effects” (J Med Chem, 2020)
Activity calls are given as the source filed them. No cut-off for these calls is given here. Numbered stars: 1 amine (or outer) side, 2 acyl side, 3 side chain; on linkers, the order of the positions; unused ones are H or OH. Bridge positions count the residues as written; N and C are the ends. Square brackets hold non-standard residues; d marks the D form. Peptide text beside a SMILES is read from it. * marks the point of attachment. X1 = O=C(O)CCCCCCCCCCCCCCCCC(=O)N[C@@H](CCCCNC(=O)CCOCCOCCNC(=O)CCOCCOCCNC(=O)C*)C(=O)O; X4 = O=C(O)CCCCCCCCCCCCCCCCC(=O)NCCOCCOCCOCCNC(=O)C*; X3 = CCCCCCCCCCCCCC(=O)NCCOCCOCCNC(=O)C*; X2 = O=C(CCC[*:2])[*:1]; Sar = CNCC(=O)O; Cam = NC(=O)C*

Key:
Oxytocin receptor [1] = target: T1, Oxytocin receptor (Homo sapiens, UniProt P30559); test: Agonist activity at recombinant human Gi/Go-coupled OTR expressed in CHOK1 cells assessed as induction of beta-arrestin recruitment measured after 90 mins in presence of 10% FBS by pathhunter assay; assay type: cell-based
T1 sequence (P30559 whole entry): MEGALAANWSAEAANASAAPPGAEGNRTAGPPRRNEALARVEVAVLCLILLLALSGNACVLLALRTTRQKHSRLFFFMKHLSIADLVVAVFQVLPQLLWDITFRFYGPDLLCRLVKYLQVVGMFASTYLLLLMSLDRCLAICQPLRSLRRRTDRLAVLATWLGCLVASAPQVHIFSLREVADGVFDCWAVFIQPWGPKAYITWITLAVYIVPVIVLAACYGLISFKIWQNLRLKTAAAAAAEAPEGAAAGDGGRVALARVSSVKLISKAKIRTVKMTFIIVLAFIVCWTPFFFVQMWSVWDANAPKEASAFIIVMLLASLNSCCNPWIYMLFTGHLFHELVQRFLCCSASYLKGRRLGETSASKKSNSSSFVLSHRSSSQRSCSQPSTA

Oxytocin receptor [2] = target: T1, Oxytocin receptor; test: Agonist activity at recombinant human Gi/Go-coupled OTR expressed in CHOK1 cells assessed as induction of beta-arrestin recruitment measured after 90 mins in absence of 10% FBS by pathhunter assay; assay type: cell-based
[3] = target: T2, Oxytocin receptor (Homo sapiens) (UniProt P30559); test: Agonist activity at recombinant human Gi/Go-coupled OTR expressed in CHOK1 cells assessed as induction of beta-arrestin recruitment measured after 90 mins in absence of 10% FBS by pathhunter assay relative to oxytocin; assay type: cell-based
T2 sequence (whole entry): T1 sequence (P30559 whole entry)

[4] = target: T2, Oxytocin receptor (Homo sapiens); test: Ratio of EC50 for agonist activity at recombinant human Gi/Go-coupled OTR expressed in CHOK1 cells in presence of 10% FBS to EC50 for agonist activity at recombinant human Gi/Go-coupled OTR expressed in CHOK1 cells in absence of 10% FBS; assay type: cell-based
[5] = Aqueous solubility of the compound; assay type: physicochemical; details: buffer
[6] = target: T2, Oxytocin receptor (Homo sapiens); test: Agonist activity at recombinant human Gi/Go-coupled OTR expressed in CHOK1 cells assessed as induction of beta-arrestin recruitment measured after 90 mins in presence of 10% FBS by pathhunter assay relative to oxytocin; assay type: cell-based
Mus musculus [7] = test: Anorexigenic activity in C57BL/6J mouse assessed as reduction in food intake at 0.5 mg/kg, sc measured at 3 hrs interval for 6 hrs; assay type: functional, organism-based
Mus musculus [8] = test: Anorexigenic activity in C57BL/6J mouse assessed as reduction in food intake at 0.5 mg/kg, sc measured at 24 hrs post-dose; assay type: functional, organism-based
Mus musculus [9] = test: Anorexigenic activity in C57BL/6J mouse assessed as reduction in body weight at 0.5 mg/kg, sc measured daily for 2 days; assay type: functional, organism-based
Mus musculus [10] = test: Anorexigenic activity in C57BL/6J mouse […] model assessed as reduction in food intake at 0.1 mg/kg, sc administered once daily for 9 days and measured daily during compound dosing; assay type: functional, organism-based
Mus musculus [11] = test: Anorexigenic activity in C57BL/6J mouse […] model assessed as reduction in body weight at 0.1 mg/kg, sc administered once daily for 9 days and measured daily during compound dosing; assay type: functional, organism-based
[12] = Half life in C57BL/6J mouse; assay type: ADME; details: in vivo
Vasopressin V2 receptor = Vasopressin V2 receptor (Homo sapiens, UniProt P30518); test: Agonist activity at recombinant human V2 receptor expressed in CHOK1 cells assessed as increase in cAMP level measured after 30 mins by HTRF assay; assay type: cell-based
[13] = Tmax in C57BL/6 mouse plasma at 1 mg/kg, sc by LC-MS analysis; assay type: ADME, organism-based
[14] = Terminal half life in C57BL/6 mouse plasma at 1 mg/kg, sc by LC-MS analysis; assay type: ADME, organism-based; details: read-out: beta t1/2 (converted)
[15] = Cmax in C57BL/6 mouse plasma at 1 mg/kg, sc by LC-MS analysis; assay type: ADME, organism-based; design: dose 1 mg/kg, route subcutaneous
[16] = AUC (0 to last) in C57BL/6 mouse plasma at 1 mg/kg, sc by LC-MS analysis; assay type: ADME, organism-based; design: dose 1 mg/kg, time 0 - last, route subcutaneous
[17] = Drug level in C57BL/6 mouse at 1 mg/kg, sc measured after 24 hrs by LC-MS analysis; assay type: ADME, organism-based; details: in vivo, read-out: Drug uptake
[18] = Ratio of drug level in brain to plasma in C57BL/6 mouse at 1 mg/kg, sc measured after 7 hrs by LC-MS analysis; assay type: ADME, organism-based; details: read-out: BPR
Mus musculus [19] = test: Anorexigenic activity in C57BL/6J mouse assessed as reduction in food intake at 0.1 mg/kg, sc measured at 3 hrs interval for 24 hrs; assay type: functional, organism-based
Mus musculus [20] = test: Anorexigenic activity in C57BL/6J mouse assessed as reduction in body weight at 0.1 mg/kg, sc measured daily for 2 days; assay type: functional, organism-based
Mus musculus [21] = test: Anorexigenic activity in sc dosed C57BL/6J mouse […] model assessed as reduction in food intake administered once daily for 9 days and measured daily during compound dosing; assay type: functional, organism-based
Mus musculus [22] = test: Anorexigenic activity in sc dosed C57BL/6J mouse […] model assessed as reduction in body weight administered once daily for 9 days and measured daily during compound dosing; assay type: functional, organism-based

Chain of Vasopressin V2 receptor (P30518 whole entry): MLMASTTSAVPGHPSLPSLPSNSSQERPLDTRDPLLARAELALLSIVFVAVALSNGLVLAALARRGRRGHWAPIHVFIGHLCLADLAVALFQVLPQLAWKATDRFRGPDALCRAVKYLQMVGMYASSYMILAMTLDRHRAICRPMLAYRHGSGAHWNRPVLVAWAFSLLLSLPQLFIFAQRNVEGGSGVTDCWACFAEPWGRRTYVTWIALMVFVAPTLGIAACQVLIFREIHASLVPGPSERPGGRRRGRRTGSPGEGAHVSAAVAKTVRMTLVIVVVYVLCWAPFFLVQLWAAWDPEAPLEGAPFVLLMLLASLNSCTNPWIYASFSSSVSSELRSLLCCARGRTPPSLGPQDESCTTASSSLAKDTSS

EC50 (Oxytocin receptor [1]) [nM]	EC50 (Oxytocin receptor [2]) [nM]	%max [3] [%]	Ratio EC50 [4]	solubility [5]	SMILES	other results
18.9	5.27	116	3.6	Soluble	CCCCCCCCCCCCCC(=O)NCCOCCOCCNC(=O)CSC[C@H](NC(=O)CNC(=O)[C@@H]1CSCCCC(=O)N[C@@H](Cc2ccc(O)cc2)C(=O)N[C@@H]([C@@H](C)CC)C(=O)N[C@@H](CCC(N)=O)C(=O)N[C@@H](CC(N)=O)C(=O)N1)C(=O)NCC(N)=O (YIQNCGC(X3)G-NH2; linker N-5 via X2)	
173	3.41	117	50.9	Soluble	CC[C@H](C)[C@@H]1NC(=O)[C@H](Cc2ccc(O)cc2)NC(=O)CCCSC[C@@H](C(=O)NCC(=O)N[C@@H](CSCC(=O)NCCOCCOCCOCCNC(=O)CCCCCCCCCCCCCCCCC(=O)O)C(=O)NCC(N)=O)NC(=O)[C@H](CC(N)=O)NC(=O)[C@H](CCC(N)=O)NC1=O (YIQNCGC(X4)G-NH2; linker N-5 via X2)	
831	52.4	34	15.9		CC[C@H](C)[C@@H]1NC(=O)[C@H](Cc2ccc(O)cc2)NC(=O)CCCSC[C@@H](C(=O)NCC(=O)N[C@@H](CSCC(=O)NCCOCCOCCOCCNC(=O)CCCCCCCCCCCCCCCCC(=O)O)C(=O)N(C)CC(N)=O)NC(=O)[C@H](CC(N)=O)NC(=O)[C@H](CCC(N)=O)NC1=O (YIQNCGC(X4)[Sar]-NH2; linker N-5 via X2)	
5.28					CCCCCCCCCCCCCC(=O)NCCOCCOCCNC(=O)CSC[C@H](NC(=O)[C@@H]1CCCN1C(=O)[C@@H]1CSCCCC(=O)N[C@@H](Cc2ccc(O)cc2)C(=O)N[C@@H]([C@@H](C)CC)C(=O)N[C@@H](CCC(N)=O)C(=O)N[C@@H](CC(N)=O)C(=O)N1)C(=O)NCC(N)=O (YIQNCPC(X3)G-NH2; linker N-5 via X2)	%max [6]: 70%
14.4					CC[C@H](C)[C@@H]1NC(=O)[C@H](Cc2ccc(O)cc2)NC(=O)CCCSC[C@@H](C(=O)N2CCC[C@H]2C(=O)N[C@@H](CC(C)C)C(=O)NCC(N)=O)NC(=O)[C@H](CC(N)=O)NC(=O)[C@H](CSCC(N)=O)NC1=O (YIC(Cam)NCPLG-NH2; linker N-5 via X2)	%max [6]: 47%
					CC[C@H](C)[C@@H]1NC(=O)[C@H](Cc2ccc(OC)cc2)NC(=O)CCCSC[C@@H](C(=O)N2CCC[C@H]2C(=O)N[C@@H](CC(C)C)C(=O)NCC(N)=O)NC(=O)[C@H](CC(N)=O)NC(=O)[C@H](CCC(N)=O)NC1=O [CARBETOCIN] (Y(Me)IQNCPLG-NH2; linker N-5 via X2)	Activity (Mus musculus [7]): Active; Activity (Mus musculus [8]): inactive; Activity (Mus musculus [9]): inactive; Activity (Mus musculus [10]): Active; Activity (Mus musculus [11]): Active; half-life [12]: 0.667 h
193	2.58	125	74.7	Soluble	CC[C@H](C)[C@@H]1NC(=O)[C@H](Cc2ccc(O)cc2)NC(=O)CCCSC[C@@H](C(=O)NCC(=O)N[C@@H](CSCC(=O)NCCOCCOCCC(=O)NCCOCCOCCC(=O)NCCCC[C@H](NC(=O)CCCCCCCCCCCCCCCCC(=O)O)C(=O)O)C(=O)NCC(N)=O)NC(=O)[C@H](CC(N)=O)NC(=O)[C@H](CCC(N)=O)NC1=O (YIQNCGC(X1)G-NH2; linker N-5 via X2)	EC50 (Vasopressin V2 receptor): 1800 nM; Tmax [13]: 7 h; half-life [14]: 24.2 h; Cmax [15]: 9110 ng/mL; AUC(0-t) [16]: 350 µg·h/mL; concentration at 24 h [17]: > 850 nM; Kp at 7 h [18]: 0.005; Activity (Mus musculus [19]): Active; Activity (Mus musculus [20]): Active; Activity (Mus musculus [21]): Dose-dependent effect; Activity (Mus musculus [22]): Dose-dependent effect
56.9	10.5	57	5.4		CCCCCCCCCCCCCC(=O)NCCOCCOCCNC(=O)CSC[C@H](NC(=O)CNC(=O)[C@@H]1CSCCCC(=O)N[C@@H](Cc2ccc(O)cc2)C(=O)N[C@@H]([C@@H](C)CC)C(=O)N[C@@H](CCC(N)=O)C(=O)N[C@@H](CC(N)=O)C(=O)N1)C(=O)N(C)CC(N)=O (YIQNCGC(X3)[Sar]-NH2; linker N-5 via X2)	
